Experimental data from US9862717B2 (Merck Patent GmbH, priority 2014, dated 2018).

Each compound was assayed against T1, CDK8/CycC (Homo sapiens, UniProt P49336) (assay: FRET based Lanthascreen binding competition assay for CDK8 inhibitory activity). Conditions: CDK8 co-expressed with CycC; class symbols; read-out: IC50.
T1 construct: purchased Invitrogen PV4402
Excerpt: Biochemical Assay for CDK8 Inhibitory Activity FRET based Lanthascreen binding competition assay: A dye-labeled ATP competitive probe served as a FRET acceptor upon binding to CDK8 labeled with a strepavidin -Eu-chelate (via a biotinylated anti His antibody). The result was a fluorescence signal at 647 nm. In case this probe was competed by an inhibitor, such a signal cannot be generated any more. The CDK8 used for this assay was a protein co-expressed with CycC. The assay procedure for an assay in a 1536 well plate was performed according to the following: 2 μL CDK8/biotin-anti-His Ab/SA-Eu mix in Assay buffer were pipetted into the wells of a micro plate. 1 μL compound in 20 mM Hepes buffer/5% DMSO was added. The plate was shaken for 30 sec and incubated for 20 min at RT. 2 μL Alexa647-probe in assay buffer were added. The plate was shaken for 30 sec again and incubated for 60 min at RT in the dark. Then the plate was read out on a Perkin Elmer Envision (mode LANCE/TRF, excitation 340 nm emission 650 nm). […] The readouts were fitted to IC50 curves using Genedata Condoseo.

T1 sequence (P49336 whole entry): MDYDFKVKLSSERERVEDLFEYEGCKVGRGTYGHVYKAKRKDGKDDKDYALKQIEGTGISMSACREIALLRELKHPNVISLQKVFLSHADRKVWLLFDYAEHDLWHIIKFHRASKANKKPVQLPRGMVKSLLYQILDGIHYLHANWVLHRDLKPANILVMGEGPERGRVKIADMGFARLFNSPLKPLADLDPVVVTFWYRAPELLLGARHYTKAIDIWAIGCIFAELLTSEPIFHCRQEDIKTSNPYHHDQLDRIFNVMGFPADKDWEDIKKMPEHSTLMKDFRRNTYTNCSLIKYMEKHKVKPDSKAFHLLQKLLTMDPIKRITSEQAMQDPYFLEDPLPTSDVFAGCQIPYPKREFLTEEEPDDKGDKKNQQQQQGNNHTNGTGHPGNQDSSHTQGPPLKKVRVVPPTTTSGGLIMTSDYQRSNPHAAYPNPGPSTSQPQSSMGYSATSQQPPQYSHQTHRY
T1 sequence (P24863 whole entry partner): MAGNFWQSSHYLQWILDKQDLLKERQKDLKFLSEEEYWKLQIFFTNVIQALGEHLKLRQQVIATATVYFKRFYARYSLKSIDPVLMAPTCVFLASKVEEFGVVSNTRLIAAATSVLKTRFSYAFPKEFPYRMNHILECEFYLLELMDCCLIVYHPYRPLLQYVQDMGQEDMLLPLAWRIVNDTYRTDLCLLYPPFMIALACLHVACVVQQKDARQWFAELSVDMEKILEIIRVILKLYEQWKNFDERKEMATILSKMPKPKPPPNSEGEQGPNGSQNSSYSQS

First: Nc1n[nH]c2ccc(C(=O)N3CCCCC3Cc3ccccc3)cc12 (centres unmarked) [compound 81, (3-Amino-1H-indazol-5-yl)-(2-benzyl-piperidin-1-yl)-methanone]
Second: Nc1n[nH]c2ccc(C(=O)N3CCCCC3c3ccccc3)cc12 (centres unmarked) [compound 82, (3-Amino-1H-indazol-5-yl)-(2-phenyl-piperidin-1-yl)-methanone]
The IC50 of the first is higher: 0.1 to 1 µM for the first, 0.01 to 0.1 µM for the second. The second is the more potent here.

`Nc1n[nH]c2ccc(C(=O)N3CCCC3c3ccccc3)cc12` (centres unmarked) [compound 83, (3-Amino-1H-indazol-5-yl)-(2-phenyl-pyrrolidin-1-yl)-methanone] and `Nc1n[nH]c2ccc(C(=O)N3CCC[C@@H]3c3ccccc3)cc12` [compound 91] fall in the same range of IC50: 0.01 to 0.1 µM for the first, 0.01 to 0.1 µM for the second.

`Nc1n[nH]c2ccc(C(=O)N3CCC(c4ccccc4)C3)cc12` (centres unmarked) [compound 84, (3-Amino-1H-indazol-5-yl)-(3-phenyl-pyrrolidin-1-yl)-methanone] and `Nc1n[nH]c2ccc(C(=O)N3CC[C@H](c4ccccc4)C3)cc12` [compound 87, (3-Amino-1H-indazol-5-yl)-((R)-3-phenyl-pyrrolidin-1-yl)-methanone] fall in the same range of IC50: 0.1 to 1 µM for the first, 0.1 to 1 µM for the second.

`Nc1n[nH]c2ccc(C(=O)N3CC[C@@H](c4ccccc4)C3)cc12` [compound 88, (3-Amino-1H-indazol-5-yl)-((S)-3-phenyl-pyrrolidin-1-yl)-methanone] and `Nc1n[nH]c2ccc(C(=O)N3CCCC(c4ccccc4)C3)cc12` (centres unmarked) [compound 115] fall in the same range of IC50: 0.1 to 1 µM for the first, 0.1 to 1 µM for the second.

`Nc1n[nH]c2ncc(C(=O)N3CCC[C@H]3c3ccc(Cl)cc3)cc12` [compound 96, (3-Amino-1H-pyrazolo[3,4-b]pyridin-5-yl)-[(S)-2-(4-chloro-phenyl)-pyrrolidin-1-yl]-methanone] and `Nc1n[nH]c2ncc(C(=O)N3CCC[C@H]3c3ccc(Br)cc3)cc12` [compound 98, (3-Amino-1H-pyrazolo[3,4-b]pyridin-5-yl)-[(S)-2-(4-bromo-phenyl)-pyrrolidin-1-yl]-methanone] fall in the same range of IC50: 0.01 to 0.1 µM for the first, 0.01 to 0.1 µM for the second.

First: Nc1n[nH]c2ccc(C(=O)N3CCC3c3ccc(Cl)cc3)cc12 (centres unmarked) [compound 104, (3-Amino-1H-indazol-5-yl)-[2-(4-chloro-phenyl)-azetidin-1-yl]-methanone]
Second: Nc1n[nH]c2ccc(C(=O)N3CCCCCC3c3ccc(Cl)cc3)cc12 (centres unmarked) [compound 106, (3-Amino-1H-indazol-5-yl)-[2-(4-chloro-phenyl)-azepan-1-yl]-methanone]
The IC50 of the first is lower: 0.01 to 0.1 µM for the first, 0.1 to 1 µM for the second. The first is the more potent here.

`Nc1n[nH]c2ccc(C(=O)N3CCCCCC3c3cccc(F)c3)cc12` (centres unmarked) [compound 107, (3-Amino-1H-indazol-5-yl)-[2-(3-fluoro-phenyl)-azepan-1-yl]-methanone] and `Nc1n[nH]c2ccc(C(=O)N3CCCC3c3cccc(Cl)c3)cc12` (centres unmarked) [compound 147, (3-Amino-1H-indazol-5-yl)-[2-(3-chloro-phenyl)-pyrrolidin-1-yl]-methanone] fall in the same range of IC50: 0.1 to 1 µM for the first, 0.1 to 1 µM for the second.

First: Nc1n[nH]c2ccc(C(=O)N3CCCC3c3ccc(C(F)(F)F)cc3)cc12 (centres unmarked) [compound 112, (3-Amino-1H-indazol-5-yl)-[2-(4-trifluoromethyl-phenyl)-pyrrolidin-1-yl]-methanone]
Second: Nc1n[nH]c2ccc(C(=O)N3CCC[C@H]3c3ccccc3)cc12 [compound 131, (3-Amino-1H-indazol-5-yl)-((S)-2-phenyl-pyrrolidin-1-yl)-methanone]
The IC50 of the first is lower: 0.01 to 0.1 µM for the first, 0.1 to 1 µM for the second.

`CCOc1ccccc1C1CCCN1C(=O)c1ccc2[nH]nc(N)c2c1` (centres unmarked) [compound 113, (3-Amino-1H-indazol-5-yl)-[2-(2-ethoxy-phenyl)-pyrrolidin-1-yl]-methanone] and `Nc1n[nH]c2ccc(C(=O)N3CCCC3c3ccccc3OCC(F)(F)F)cc12` (centres unmarked) [compound 114, (3-Amino-1H-indazol-5-yl)-{2-[2-(2,2,2-trifluoro-ethoxy)-phenyl]-pyrrolidin-1-yl}-methanone] fall in the same range of IC50: 0.1 to 1 µM for the first, 0.1 to 1 µM for the second.

`Nc1n[nH]c2ccc(C(=O)N3CCCC(c4ccc(Cl)cc4)C3)cc12` (centres unmarked) [compound 116, (3-Amino-1H-indazol-5-yl)-[3-(4-chloro-phenyl)-piperidin-1-yl]-methanone] and `Nc1n[nH]c2ccc(C(=O)N3CCCC3c3ccccc3Cl)cc12` (centres unmarked) [compound 148, (3-Amino-1H-indazol-5-yl)-[2-(2-chloro-phenyl)-pyrrolidin-1-yl]-methanone] fall in the same range of IC50: 0.1 to 1 µM for the first, 0.1 to 1 µM for the second.

`Cc1n[nH]c2ncc(C(=O)N3CCC[C@H]3c3ccncc3)cc12` [compound 122, (3-Methyl-1H-pyrazolo[3,4-b]pyridin-5-yl)-((S)-2-pyridin-4-yl-pyrrolidin-1-yl)-methanone] and `Cc1n[nH]c2ncc(C(=O)N3CCC[C@H]3c3cccnc3)cc12` [compound 129, (3-Methyl-1H-pyrazolo[3,4-b]pyridin-5-yl)-((S)-2-pyridin-3-yl-pyrrolidin-1-yl)-methanone] fall in the same range of IC50: 0.1 to 1 µM for the first, 0.1 to 1 µM for the second.

`Cc1n[nH]c2ncc(C(=O)N3CC(O)CC3c3ccc(F)cc3)cc12` (centres unmarked) [compound 127, [2-(4-Fluoro-phenyl)-4-hydroxy-pyrrolidin-1-yl]-(3-methyl-1H-pyrazolo[3,4-b]pyridin-5-yl)-methanone] and `Cc1n[nH]c2ncc(C(=O)N3C[C@@H](O)C[C@H]3c3ccc(F)cc3)cc12` [compound 145, [(2S,4S)-2-(4-Fluoro-phenyl)-4-hydroxy-pyrrolidin-1-yl]-(3-methyl-1H-pyrazolo[3,4-b]pyridin-5-yl)-methanone] fall in the same range of IC50: 0.1 to 1 µM for the first, 0.1 to 1 µM for the second.

First: Nc1n[nH]c2ccc(C(=O)N3CCC[C@@H]3c3ccccc3)cc12 [compound 132, (3-Amino-1H-indazol-5-yl)-((R)-2-phenyl-pyrrolidin-1-yl)-methanone]
Second: Cc1ccc([C@@H]2CCCN2C(=O)c2cnc3[nH]nc(C)c3c2)cc1 [compound 136, (3-Methyl-1H-pyrazolo[3,4-b]pyridin-5-yl)-((S)-2-p-tolyl-pyrrolidin-1-yl)-methanone]
The IC50 of the first is higher: 0.1 to 1 µM for the first, < 0.01 µM for the second.

First: Cc1ccc([C@H]2CCCN2C(=O)c2cnc3[nH]nc(C)c3c2)cc1 [compound 137, (3-Methyl-1H-pyrazolo[3,4-b]pyridin-5-yl)-((R)-2-p-tolyl-pyrrolidin-1-yl)-methanone]
Second: COc1ccccc1C1CCCN1C(=O)c1cnc2[nH]nc(C)c2c1 (centres unmarked) [compound 141, [2-(2-Methoxy-phenyl)-pyrrolidin-1-yl]-(3-methyl-1H-pyrazolo[3,4-b]pyridin-5-yl)-methanone]
The IC50 of the first is higher: 1 to 10 µM for the first, 0.1 to 1 µM for the second. The second is the more potent here.

First: Cc1n[nH]c2ncc(C(=O)N3CCC[C@@H](c4ccccc4)C3)cc12 [compound 139, (3-Methyl-1H-pyrazolo[3,4-b]pyridin-5-yl)-((S)-3-phenyl-piperidin-1-yl)-methanone]
Second: COc1ccccc1[C@@H]1CCCN1C(=O)c1cnc2[nH]nc(C)c2c1 [compound 143, [(S)-2-(2-Methoxy-phenyl)-pyrrolidin-1-yl]-(3-methyl-1H-pyrazolo[3,4-b]pyridin-5-yl)-methanone]
The IC50 of the first is higher: 0.1 to 1 µM for the first, 0.01 to 0.1 µM for the second.

`Cc1n[nH]c2ncc(C(=O)N3CC[C@@H](N)[C@H]3c3ccc(F)cc3)cc12` [compound 144, [(2R,3R)-3-Amino-2-(4-fluoro-phenyl)-pyrrolidin-1-yl]-(3-methyl-1H-pyrazolo[3,4-b]pyridin-5-yl)-methanone] showed an IC50 of 0.01 to 0.1 µM.

Same assay, conditions: IC50 [μM], CDK8 co-expressed with CycC; class symbols

First: Nc1n[nH]c2ccc(C(=O)N3CCC[C@H]3c3ccc(Cl)cc3)cc12 [compound 79, (3-Amino-1H-indazol-5-yl)-[(S)-2-(4-chloro-phenyl)-pyrrolidin-1-yl]-methanone]
Second: Nc1n[nH]c2ccc(C(=O)N3CCC[C@@H]3c3ccc(Cl)cc3)cc12 [compound 80, (3-amino-1H-indazol-5-yl)-[(R)-2-(4-chloro-phenyl)-pyrrolidin-1-yl]-methanone]
The IC50 of the first is lower: < 0.01 µM for the first, 0.1 to 1 µM for the second. The first is the more potent here.

First: Nc1n[nH]c2ccc(C(=O)N3CCCC3c3ccc(F)cc3)cc12 (centres unmarked) [compound 85, (3-Amino-1H-indazol-5-yl)-[2-(4-fluoro-phenyl)-pyrrolidin-1-yl]-methanone]
Second: Nc1n[nH]c2ccc(C(=O)N3CCC[C@@H]3c3ccc(F)cc3)cc12 [compound 120, (3-Amino-1H-indazol-5-yl)-[(R)-2-(4-fluoro-phenyl)-pyrrolidin-1-yl]-methanone]
The IC50 of the first is lower: < 0.01 µM for the first, 0.1 to 1 µM for the second.

`Nc1n[nH]c2ccc(C(=O)N3CCCC[C@H]3c3ccc(F)cc3)cc12` [compound 92, (3-Amino-1H-indazol-5-yl)-[(S)-2-(4-fluoro-phenyl)-piperidin-1-yl]-methanone] and `Nc1n[nH]c2ccc(C(=O)N3CCC[C@H]3c3ccc(F)cc3)cc12` [compound 124, (3-Amino-1H-indazol-5-yl)-[(S)-2-(4-fluoro-phenyl)-pyrrolidin-1-yl]-methanone] fall in the same range of IC50: 0.01 to 0.1 µM for the first, 0.01 to 0.1 µM for the second.

`Nc1n[nH]c2ccc(C(=O)N3CCC3c3ccc(F)cc3)cc12` (centres unmarked) [compound 105, (3-Amino-1H-indazol-5-yl)-[2-(4-fluoro-phenyl)-azetidin-1-yl]-methanone] and `Nc1n[nH]c2ccc(C(=O)N3CC[C@H]3c3ccc(F)cc3)cc12` [compound 134, (3-Amino-1H-indazol-5-yl)-[(S)-2-(4-fluoro-phenyl)-azetidin-1-yl]-methanone] fall in the same range of IC50: 0.01 to 0.1 µM for the first, 0.01 to 0.1 µM for the second.

First: Nc1n[nH]c2ccc(C(=O)N3CCC(c4ccc(Cl)cc4)C3)cc12 (centres unmarked) [compound 117, (3-Amino-1H-indazol-5-yl)-[3-(4-chloro-phenyl)-pyrrolidin-1-yl]-methanone]
Second: Nc1n[nH]c2ccc(C(=O)N3CC[C@@H]3c3ccc(F)cc3)cc12 [compound 135, (3-Amino-1H-indazol-5-yl)-[(R)-2-(4-fluoro-phenyl)-azetidin-1-yl]-methanone]
The IC50 of the first is lower: 0.01 to 0.1 µM for the first, 0.1 to 1 µM for the second.
